Legend:
[1] = target: T1, Lipomyces starkeyi LST1_205437 transporter, wild type, SEQ ID NO: 4 (Lipomyces starkeyi, UniProt A0A1E3QE37); test: C14 labeled sugar uptake assay (zero-trans influx), SR8D8 expressing LST1_205437; format: cell-based; settings: initial glucose uptake (5 s), 30° C., pH 6.5; cell wet weight; ± SEM
T1 construct: whole-cell 14C sugar uptake
T1 sequence (A0A1E3QE37 1-603): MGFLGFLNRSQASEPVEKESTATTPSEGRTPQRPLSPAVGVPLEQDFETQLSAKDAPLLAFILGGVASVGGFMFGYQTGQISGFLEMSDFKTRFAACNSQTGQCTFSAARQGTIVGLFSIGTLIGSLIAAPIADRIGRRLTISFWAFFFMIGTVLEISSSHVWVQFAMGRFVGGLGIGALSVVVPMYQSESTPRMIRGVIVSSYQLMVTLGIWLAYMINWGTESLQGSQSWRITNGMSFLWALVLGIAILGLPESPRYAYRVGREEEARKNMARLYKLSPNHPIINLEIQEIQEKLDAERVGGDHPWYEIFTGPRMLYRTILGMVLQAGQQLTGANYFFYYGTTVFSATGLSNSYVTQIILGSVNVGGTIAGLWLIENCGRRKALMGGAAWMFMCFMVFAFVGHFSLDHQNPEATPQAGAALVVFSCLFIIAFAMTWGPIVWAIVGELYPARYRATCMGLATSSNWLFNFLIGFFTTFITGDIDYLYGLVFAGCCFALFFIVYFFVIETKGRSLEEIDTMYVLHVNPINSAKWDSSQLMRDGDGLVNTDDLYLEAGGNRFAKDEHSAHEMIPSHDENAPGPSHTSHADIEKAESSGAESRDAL
Protocol: (§1) FIG. 7A illustrates sugar uptake kinetics by SR8D8. FIG. 7B illustrates sugar uptake kinetics by SR8D8 expressing AtSWEET1. FIG. 7C illustrates sugar uptake kinetics by SR8D8 expressing ScGal2. FIG. 7D illustrates sugar uptake kinetics by SR8D8 expressing AtSWEET7. FIG. 7E illustrates sugar uptake kinetics by SR8D8 expressing LST1_205437. Initial xylose uptake (20 s) was measured at 30° C. over a concentration range of 1 to 500 mM xylose. FIG. 7F illustrates sugar uptake kinetics by SR8D8. FIG. 7G illustrates sugar uptake kinetics by SR8D8 expressing AtSWEET1. FIG. 7H illustrates sugar uptake kinetics by SR8D8 expressing ScGal2. FIG. 7I illustrates sugar uptake kinetics by SR8D8 expressing AtSWEET7. FIG. 7J illustrates sugar uptake kinetics by SR8D8 expressing LST1_205437. Initial glucose uptake (5 s) was measured at 30° C. over a concentration range of 0.2 to 100 mM glucose. Curve fitting for Michaelis-Menten kinetics was applied to data of three independent measurements at each concentration.
(§2) A xylose fermenting S. cerevisiae yeast (SR8) with HXT1-7Δ, GAL2Δ deletions was used for transporter screening and characterization (SR8D8). SR8D8 was grown in YPE medium/plate (10 g/L yeast extract, 20 g/L peptone, and 5 g/L ethanol). […] Biomass was calculated from the OD600 measured using a Biomate 5 UV-visible spectrophotometer (Fisher, NY, USA). All growth rates were measured using a Bioscreen C plate reader system (Growth Curves USA, Piscataway, NJ, USA). […]
SR8D8 containing the respective plasmid was grown on selective YPE medium to an OD600 of 1-1.5, harvested by centrifugation, and washed twice in ice-cold uptake buffer (100 mM potassium phosphate, pH 6.5). […] Radioactivity was analyzed in a Beckman-Coulter LS6500 multi-purpose liquid scintillation counter (Beckman-Coulter, CA, USA).
Uptake was measured at sugar concentrations 0.2, 1, 5, 25, and 100 mM for glucose and 1, 5, 25, 66, 100, 200, and 500 mM for xylose. Inhibition of xylose uptake by glucose was measured at 25, 66, and 100 mM xylose with additional 25 and 100 mM unlabeled glucose.

[2] = target: T2, Arabidopsis thaliana AtSWEET1 transporter, wild type, SEQ ID NO: 1 (Arabidopsis thaliana, UniProt Q8L9J7); test: C14 labeled sugar uptake assay, SR8D8 expressing AtSWEET1; format: cell-based; settings: in words; FIGS. 7B and 7D legend: FIG. 7G
T2 construct: whole-cell 14C sugar uptake
T2 sequence (Q8L9J7 1-247): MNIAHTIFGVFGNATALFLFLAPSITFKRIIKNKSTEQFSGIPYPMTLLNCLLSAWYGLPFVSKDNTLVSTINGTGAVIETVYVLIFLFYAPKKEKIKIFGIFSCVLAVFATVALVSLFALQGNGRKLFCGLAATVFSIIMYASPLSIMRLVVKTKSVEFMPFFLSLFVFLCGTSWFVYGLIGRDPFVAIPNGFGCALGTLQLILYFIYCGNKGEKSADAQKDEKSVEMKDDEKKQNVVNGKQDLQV
Protocol: as §1, with “Curve fitting for Michaelis-Menten kinetics was applied to data of three independent measurements at each concentration.” left out
as §2, with “(SR8D8).” for “(SR8D8). SR8D8 was grown in YPE medium/plate (10 g/L yeast extract, 20 g/L peptone, and 5 g/L ethanol).”
Uptake was measured at sugar concentrations 0.2, 1, 5, 25, and 100 mM for glucose and 1, 5, 25, 66, 100, 200, and 500 mM for xylose. […]

SMILES: OC[C@H]1OC(O)[C@H](O)[C@@H](O)[C@@H]1O (some centres unmarked) [Glucose]
- Vmax (glucose) [1]: 47.0 ± 2.6 nmol/min/mg
- glucose transport kinetics [2]: transports glucose more efficiently as compared to AtSWEET7

— US12686846B2, “Plant sweet and yeast MSF transporter capable of transporting different sugars simultaneously” (THE BOARD OF TRUSTEES OF THE UNIVERSITY OF ILLINOIS, priority 2020, dated 2026)
